Biological target: T1, Tyrosinase
T1 construct: gene PPO3
Experiment: tyrosinase inhibition assay, details only by reference
Format: biochemical
Settings: substrate and pH not given
Source text: tyrosinase inhibition assay, details only by reference on Tyrosinase

With `O=c1c(O)c(-c2ccc(O)c(O)c2)oc2cc(O)cc(O)c12` [Quercetin] the Quercetin was 39.62 ± 0.05 µg/mL.

Reference: paper PMC9653751, “Chemical Composition and Antioxidant, Antimicrobial, and Anti-Inflammatory Properties of Origanum compactum Benth Essential Oils from Two Regions: In Vitro and In Vivo Evidence and In Silico Molecular Investigations” (Molecules, 2022)
